In US20090270361A1, “Substituted pyrazole derivatives and use thereof” (Takeda Pharmaceutical Company Limited, priority 2008, published 2009):
Residue numbers refer to the chain shown, from its start. Like-named read-outs stand apart in the source and are kept apart here.

Tests used:
[1] = target: T1, LNCaP type mutant androgen receptor (AR) (Homo sapiens, UniProt P10275, T878A); test: AR-binding inhibition test (LNCaP type), radio-labeled Mibolerone displacement; conditions: read-out: inhibition rate, LNCaP type
T1 sequence (P10275 1-920 T878A): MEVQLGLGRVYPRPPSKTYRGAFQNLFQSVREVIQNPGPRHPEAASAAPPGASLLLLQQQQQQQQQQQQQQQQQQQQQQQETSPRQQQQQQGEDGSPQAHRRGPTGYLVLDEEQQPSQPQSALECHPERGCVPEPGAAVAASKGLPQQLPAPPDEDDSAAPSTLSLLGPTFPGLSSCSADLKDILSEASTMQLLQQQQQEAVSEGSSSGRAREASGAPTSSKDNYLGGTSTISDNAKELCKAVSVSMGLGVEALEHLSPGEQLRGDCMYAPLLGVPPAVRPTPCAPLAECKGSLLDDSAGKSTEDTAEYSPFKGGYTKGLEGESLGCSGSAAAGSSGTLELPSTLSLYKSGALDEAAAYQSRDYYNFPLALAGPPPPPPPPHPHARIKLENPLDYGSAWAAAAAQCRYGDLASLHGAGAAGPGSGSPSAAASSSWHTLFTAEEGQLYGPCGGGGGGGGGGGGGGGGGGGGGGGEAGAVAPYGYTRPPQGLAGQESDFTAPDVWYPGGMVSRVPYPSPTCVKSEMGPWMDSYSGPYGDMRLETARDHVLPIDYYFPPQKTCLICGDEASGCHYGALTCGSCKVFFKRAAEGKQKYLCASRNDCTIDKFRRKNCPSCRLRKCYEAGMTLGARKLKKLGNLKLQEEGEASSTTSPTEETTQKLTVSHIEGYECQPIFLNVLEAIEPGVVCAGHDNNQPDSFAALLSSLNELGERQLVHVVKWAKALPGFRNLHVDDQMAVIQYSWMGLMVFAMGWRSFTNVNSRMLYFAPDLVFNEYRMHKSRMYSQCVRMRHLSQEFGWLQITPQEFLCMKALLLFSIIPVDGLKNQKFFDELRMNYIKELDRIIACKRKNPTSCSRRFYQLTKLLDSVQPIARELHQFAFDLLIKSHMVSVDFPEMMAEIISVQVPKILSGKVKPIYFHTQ
Protocol: (§1) AR-Binding Inhibition Test (Wild Type and LNCaP Type)
(§2) To a solution of wild type or LNCaP type mutant androgen receptor (AR) was added 3 nM radio-labeled Mibolerone and final concentration 1 μM of the compound. The mixture was incubated at 4° C. for 3 hours, and B (Bound) and F (Free) Mibolerones were separated by the dextran/charcoal method. The label count of B was measured and the inhibition rate of the compound was calculated.

[2] = target: T2, wild type androgen receptor (AR) (Homo sapiens, UniProt P10275); test: AR-binding inhibition test (wild type), radio-labeled Mibolerone displacement; conditions: read-out: inhibition rate, wild type
T2 sequence (P10275 1-920): T1 sequence (P10275 1-920 T878A) with A878T
Protocol: as §1, §2

[3] = system: Human prostate cancer cells LNCaP-FGC; test: Prostate specific antigen (PSA) production inhibition test in prostate cancer cells; format: cell-based; conditions: for inhibition at 1 µM: Homo sapiens, 72 h, read-out: PSA production inhibitory rate (%)
mutant AR (W741C) = target: T3, mutant AR (W741C) (Homo sapiens, UniProt P10275, W742C); test: AR transcription inhibition test (luciferase reporter in Cos-7 cells); format: cell-based; conditions: compound 1 μM; DHT 0.1 μM; Cos-7 cells cotransfected with mutant AR (W741C) and androgen responsive luciferase reporter; 24 hr; relative to control (0.1 μM DHT); read-out: AR transcription inhibitory rate (%)
T3 construct: expressed in transfected cells; host or cells: Cos-7
T3 sequence (P10275 1-920 W742C): T1 sequence (P10275 1-920 T878A) with W742C, A878T
Protocol: AR Transcription Inhibition Test
Cos-7 cells (5,000,000 cells) were inoculated to a flask, and incubated in a culture medium (DMEM +10% Dextran Charcoal (DCC)-Fetal Bovine Serum (FBS) and 2 mM glutamine) for 24 hours. Then, a vector DNA harboring mutant AR (W741C) and a vector DNA containing a luciferase gene bound at the downstream of an androgen responsive promoter were cotransfected by a liposome method. After 4 hr, the medium was changed and, after culture for 3 hr, DHT (dihydrotestosterone) at the final concentration of 0.1 μM and the compound at the final concentration of 1 μM were added. After further culture for 24 hr, the luciferase activity was measured, and the AR transcription inhibitory activity of the compound was examined.

[4] = compound final concentration 1 μM, 3 nM radio-labeled Mibolerone, 4° C., 3 hours, dextran/charcoal method

Compound | inhibition at 1 µM [1] [%] | inhibition at 1 µM [2] [%] | inhibition at 1 µM [3] [%] | inhibition at 1 µM (mutant AR (W741C)) [%] | other results
Cc1nn(-c2ccc(C#N)c(Cl)c2)c(C)c1Cc1ccc(C(=O)NCC(O)CO)cc1 (racemic) [Example 321, (±)-4-{[1-(3-chloro-4-cyanophenyl)-3,5-dimethyl-1H-pyrazol-4-yl]methyl}-N-(2,3-dihydroxypropyl)benzamide] | 84 | 78 | 91 | 38 | 
Cc1nn(-c2ccc(C#N)c(Cl)c2)c(C)c1Cc1ccc(C(=O)N(C)CCO)cc1 [Example 296, 4-{[1-(3-chloro-4-cyanophenyl)-3,5-dimethyl-1H-pyrazol-4-yl]methyl}-N-(2-hydroxyethyl)-N-methylbenzamide] | 64 | 52 | 79 | 39 | 
Cc1nn(-c2ccc(C#N)c(Cl)c2)c(C)c1Cc1ccc(C(=O)N2CC[C@H](O)C2)cc1 [Example 332, 2-chloro-4-[4-(4-{[(3S)-3-hydroxypyrrolidin-1-yl]carbonyl}benzyl)-3,5-dimethyl-1H-pyrazol-1-yl]benzonitrile] | 78 | 72 | 84 | 22 | 
Cc1nn(-c2ccc(C#N)c(Cl)c2)c(C)c1Cc1ccc(-c2nnc(C(N)=O)o2)cc1 [Example 350, 5-(4-{[1-(3-chloro-4-cyanophenyl)-3,5-dimethyl-1H-pyrazol-4-yl]methyl}phenyl)-1,3,4-oxadiazole-2-carboxamide] | 92 | 87 | 101 | 93 | 
Cc1nn(-c2ccc(C#N)c(Cl)c2)c(C)c1Cc1ccc(C(=O)NC(C)(C)C)cc1 [Example 351, N-tert-butyl-4-{[1-(3-chloro-4-cyanophenyl)-3,5-dimethyl-1H-pyrazol-4-yl]methyl}benzamide] |  |  | 109 |  | 
Cc1nn(-c2ccc(C#N)c(Cl)c2)c(C)c1Cc1ccc(C(=O)N2CCC(O)CC2)cc1 [Example 355, 2-chloro-4-(4-{4-[(4-hydroxypiperidin-1-yl)carbonyl]benzyl}-3,5-dimethyl-1H-pyrazol-1-yl)benzonitrile] | 51 | 47 | 117 | 23 | 
Cc1nn(-c2ccc(C#N)c(Cl)c2)c(C)c1Cc1ccc(C(=O)NCC(C)(C)O)cc1 [Example 356, 4-{[1-(3-chloro-4-cyanophenyl)-3,5-dimethyl-1H-pyrazol-4-yl]methyl}-N-(2-hydroxy-2-methylpropyl)benzamide] |  |  | 98 |  | 
Cc1nn(-c2ccc(C#N)c(Cl)c2)c(C)c1Oc1ccc(C(=O)N2CCOCC2)cc1 [Example 357, 2-chloro-4-{3,5-dimethyl-4-[4-(morpholin-4-ylcarbonyl)phenoxy]-1H-pyrazol-1-yl}benzonitrile] |  |  | 100 |  | 
Cc1nn(-c2ccc(C#N)c(Cl)c2)c(C)c1Cc1ccc(C(=O)N2CC(O)C2)cc1 [Example 363, 2-chloro-4-(4-{4-[(3-hydroxyazetidin-1-yl)carbonyl]benzyl}-3,5-dimethyl-1H-pyrazol-1-yl)benzonitrile] | 79 | 73 | 100 | 23 | 
Cc1nn(-c2ccc(C#N)c(Cl)c2)c(C)c1Oc1ccc(C(=O)N2CCS(=O)(=O)CC2)cc1 [Example 367, 2-chloro-4-(4-{4-[(1,1-dioxidethiomorpholin-4-yl)carbonyl]phenoxy}-3,5-dimethyl-1H-pyrazol-1-yl)benzonitrile] |  |  |  | 24 | inhibition at 1 µM [1, 4]: 77%; inhibition at 1 µM [2, 4]: 49%; inhibition at 1 µM ([3]; compound 1 μM, testosterone final concentration 0.1 ng/m, PSA in culture supernatant after 3 days by ELISA, testosterone non-addition group = 100%, testosterone addition group = 0%): 109%
Cc1nn(-c2ccc(C#N)c(Cl)c2)c(C)c1Oc1ccc(NC(=O)C(C)(C)C)cn1 [Example 455, N-(6-{[1-(3-chloro-4-cyanophenyl)-3,5-dimethyl-1H-pyrazol-4-yl]oxy}pyridin-3-yl)-2,2-dimethylpropanamide] |  |  | 108 |  | 
CC(O)(CS(=O)(=O)c1ccc(F)cc1)C(=O)Nc1ccc(C#N)c(C(F)(F)F)c1 (stereo not drawn) [bicartamide, reference compound] |  |  |  |  | PSA production inhibitory rate (%) ([3]; 1 µM): 75%
